Data: patent US5310884A (Merck Frosst Canada, Inc., priority 1992, dated 1994)

What was measured:
[1] = system: 45 kDa guinea-pig lung membrane protein; experiment: Deglycosylation of the photoaffinity labelled 45 kDa guinea-pig lung membrane protein by N-Glycosidase F; format: biochemical; details: 1 μM LTD4
Protocol: FIG. 10. […] Following photolysis the guinea-pig lung membranes were recovered from 1 ml sample aliquots by centrifugation at 150,000×g for 15 min at 4° C. The membranes were then solubilized in 20 μl of incubation buffer (20 mM NaHPO4, pH 7.4, containing 10 mM EDTA and 1 % (v/v) 2-mercaptoethanol) containing 1 % (w/v) SDS. The solubilized preparation was then diluted with incubation buffer to a final volume of 200 μl containing 1 % (w/v) octylglucoside and 0-60 U / ml of recombinant N-Glycosidase F, and incubated overnight at room temperature. Samples were further diluted in 3-fold concentrated SDS sample buffer and analysed by SDS-PAGE, followed by autoradiography. […] The migration of the molecular weight standards is indicated on the left.
In every case the only detectable product was the 40 kDa protein. […] This is also supported by qualitative evidence since the radiolabelled precursor migrated as a diffuse band during SDS-PAGE, behaviour typical of glycoproteins, while the deglycosylated product migrated as a more focused band.

[2] = RP-HPLC stability of [125I]Azido-LTD4 under binding assay conditions with guinea-pig lung membrane; format: in vitro ADME; details: 60 min
Protocol: RP-HPLC was conducted to assess the stability of [^125 I]Azido-LTD4 under binding assay conditions. […] Following a 60 min incubation at room temperature, samples were centrifuged at 150,000×g for 15 min at 4° C. The supernatant (unbound radioligand) was removed and the membrane pellet was resuspended by sonication in 150 μl of RP-HPLC solvent ([…] (v/v) MeOH:H2O:HOAc containing 0.01% 2-mercaptoethanol and 0.5 mM EDTA). The samples were centrifuged at 150,000×g for 15 min at 4° C. and the supernatent removed (bound radioligand). Bound and unbound radioligand fractions (100 μl) were analysed by RP-HPLC using a Nova Pac C18 column (0.39 ×15 cm; Waters Assoc.) eluted isocratically at a flow rate of 1 ml/min with RP-HPLC solvent. The profile of iodinated material from bound and unbound radioligand samples was determined by on-line solid scintillation gamma counting (Berthold HPLC radioactivity monitor LB 506 C1). [^125 I]Azido-LTD4 was identified by […] of non-radioactive [^127 I]Azido-LTD4 monitored by optical density at 280 nm.
FIGS. 2(A) and 2(B) RP-HPLC analysis of [^125 I]Azido-LTD4 stability. RP-HPLC was used to assess the stability of [^125 I]Azido-LDT4 under the conditions routinely employed for binding assays as described in the Methods.

[3] = biological target: T1, LTD4 receptor (guinea-pig lung membranes) (Cavia porcellus, UniProt Q2NNR5); experiment: Rates of association and dissociation of radioligand binding to guinea-pig lung membranes; design: Guinea pigs (male; from tissue; host or cells: guinea-pig lung (primarily parenchyma), sucrose-gradient membrane fraction
T1 sequence (Q2NNR5 1-340): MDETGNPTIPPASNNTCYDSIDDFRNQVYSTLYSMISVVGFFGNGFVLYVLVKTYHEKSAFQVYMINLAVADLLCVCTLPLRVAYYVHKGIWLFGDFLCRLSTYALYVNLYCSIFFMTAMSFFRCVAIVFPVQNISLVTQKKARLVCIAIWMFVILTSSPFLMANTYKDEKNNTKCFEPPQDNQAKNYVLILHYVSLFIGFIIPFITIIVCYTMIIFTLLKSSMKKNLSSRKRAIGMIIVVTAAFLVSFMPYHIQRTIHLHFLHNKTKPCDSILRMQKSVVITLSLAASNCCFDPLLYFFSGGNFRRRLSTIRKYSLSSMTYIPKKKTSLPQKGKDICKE
Protocol: FIG. 3. […] Aliquots (500 μl) were removed and filtered at the required time intervals.

[4] = system: 66.2 kDa protein (guinea-pig serum albumin); experiment: Photoaffinity labelling of 66.2 kDa protein and immunoprecipitation with rabbit anti-guinea-pig albumin antisera; format: binding; details: lung membranes and guinea-pig serum
Protocol: Samples were incubated for 60 min at room temperature. Aliquots (2×500 μl) were then removed and the bound [^125 I]Azido-LTD4 quantified as described for the filtration binding assays. The residual samples were then transferred to 25 mm diameter cluster plate well for photolysis. The cluster plates were placed on aluminium blocks, pre-cooled to -20° C., and illuminated from above with a 40 W ultraviolet light source (Phillips, γmax =350 nm) at a distance of 10 cm for 2 min. The guinea-pig lung membranes were then recovered from 1 ml sample aliquots by centrifugation at 150,000×g for 15 min at 4° C. and solubilized in sodium dodecyl sulphate polyacrylamide gel electrophoresis (SDS-PAGE) sample buffer prior to resolution of the proteins by SDS-PAGE (Laemmli, 1970). Protein bands were visualized by Coomassie Blue staining while radiolabelled proteins were identified by autoradiography of dried gels and quantified by laser densitometry (Molecular Dynamics, ImageQuant).
The TXIP solubilized samples were centrifuged at 14,000×g for 15 min at 4° C. and the supernatant mixed directly with 50 μl of non-immune rabbit serum or RAGpAlb premixed for 15 min at 4° C. with 80 μl of protein A-Sepharose (50 mg/ml in TXIP). […] The final immunocomplex was dissociated by resuspension in SDS-PAGE sample buffer for 5 min at 95° C. and analysed by SDS-PAGE and autoradiography of the dried gels. […]

[5] = biological target: T1, LTD4 receptor (guinea-pig lung membranes); experiment: Saturation binding to guinea-pig lung membranes, Scatchard plot analysis; design: Guinea pigs (male; 350 g) were sacrificed by cervical dislocation and the lung tissues removed; from tissue; host or cells: guinea-pig lung (primarily parenchyma), sucrose-gradient membrane fraction
[6] = biological target: T1, LTD4 receptor (guinea-pig lung membranes); details: 60 pM radioligand, 20-30 μg membrane protein
Protocol: Guinea pigs (male; 350 g) were sacrificed by cervical dislocation and the lung tissues removed. All subsequent procedures were performed either on ice or at 4° C. Connective tissue, trachea, large blood vessels and major airways were dissected away and the remaining lung tissue (primarily parenchyma) was finely minced prior to homogenisation in 10 vol of 10 mM HEPES/KOH pH 7.4, containing 0.25 M sucrose, 2 mM EDTA, 2 mM phenylmethylsulphonyl fluoride, 10 μg/ml pepstatin, 10 μg/ml leupeptin and 10 μM E-64, using 5 s bursts of a polytron (Brinkman Instruments). The homogenate was subjected to differential centrifugation at 1000×g for 10 min, 10,000×g for 10 min and 100,000×g for 40 min. The resulting 100,000×g pellets were resuspended in 10 mM HEPES/KOH pH 7.4, containing 10% (w/v) sucrose, at a final protein concentration of 1-2 mg/ml. This tissue suspension was carefully layered over 10 mM HEPES/KOH pH 7.4 containing 40% (w/v) sucrose in a 3:2 (v/v) ratio. The discontinuous sucrose gradient was centrifuged at 83,000×g for 60 min. The membrane fraction located at the interface of the sucrose gradient layers was recovered, diluted 10-fold in 10 mM HEPES/KOH pH 7.4 and further centrifuged at 150,000×g for 40 min. The final membrane pellets were resuspended in 10 mM HEPES/KOH pH 7.4 at a protein concentration of 2-4 mg/ml and stored at […].
Filters were then washed with 16 ml of 10 mM HEPES/KOH, pH 7.4 containing 0.01% (w/v) bovine serum albumin, at 4° C.
FIG. 4. […] Radiolabelled proteins were resolved by SDS-PAGE and visualized by autoradiography. […] In addition, photoaffinity labelled membranes were subjected to immunoprecipitation with RAGpAlb (Lane C) and non-immune rabbit serum (Lane D), as described in the Methods. The migration of molecular weight standards is indicated on the left. FIGS. 5(A)-5(C). […] Results are expressed as percentage of maximum specific binding as a function of CaCl2 concentration. […] Only the results for total binding are shown.
Results are expressed as percentage of maximum specific binding as a function of nucleotide concentration. […] Only the results for total binding are shown.
Results are expressed as percentage of maximum specific binding as a function of cation concentration. […] Only the results for total binding are shown.

Structure (SMILES)	presence of radiolabelled precursor and product after pretreatment with LTD4 [1]	stability of radioligand ([2]; room temperature, lung membrane, pH 7.4)	recovery of radioactive material following RP-HPLC ([2]; bound and unbound fractions after incubation with lung membrane, 60 pM)	dissociation of binding by 1 μM LTD4 ([3]; 1 μM LTD4, additional 50 min incubation)	association: time to reach equilibrium ([3]; guinea-pig lung membranes)	dissociation of binding by 1 μM LTD4 with 10 μM GTPγS ([3]; to non-specific levels)	radiolabelling of 66.2 kDa protein (selectivity) [4]	maximum number of binding sites (Bmax) ([5]; Scatchard, single site)	Kd ([5]; read-out: equilibrium dissociation constant (KD))	fraction of added radioligand bound to guinea-pig lung membranes [6]
CCCCC/C=C\C\C=C/C=C/C=C/[C@@H](SC[C@H](N)C(=O)NCC(=O)O)[C@@H](O)CCCC(=O)O [LTD4]	not present									
CCCCC/C=C\C\C=C/C=C/C=C/[C@@H](SC[C@H](NC(=O)CCCCCNC(=O)c1cc([125I])c(N=[N+]=[N-])cc1O)C(=O)NCC(=O)O)[C@@H](O)CCCC(=O)O [[^125 I]Azido-LTD4]		completely stable	approximately 100%	approximately 50%	60 min	almost instantaneous and complete dissociation	non-selectively labelled	1000 fmol/mg protein	200 pM	10-20%
